Measurements from patent US6358921B1, “Antimicrobial peptide compositions and method” (priority 1996, dated 2002).

Assays:
B. subtilis = type: cell-based, Bacillus subtilis
From the text: (§1) The following bacterial strains were utilized: Escherichia coli UB1005 (wt) and its antibiotic supersusceptible derivative DC2 (Clark, 1984); Excherichia coli SC9251 and its polymixin B rasistant mutant pmrA SC9252 (Peterson, et al., 1987) Pseudomonas aeruginosa H187 (wt) (Angus, et al., 1987) and its antibiotic-sensitive derivative H188 (Zimmerman, W, Antimicrob. Agents Chemother. 18: 94-100, 1980); methicillin sensitive Staphylococcus aureus K147 (Kreiswirth, et al., 1983); Staphylococcus aureus SAP0017, a methicillin resistant clinical isolate from Dr. A. Chow (University of British Columia); Bacillus subtilis, an environmental wt lab strain. Enterococcus faecalis are ATCC 29212 cells and Staphylococcus epidermidis was a clinical isolate from Dr. D. Speert (University of British Columbia). Antifungal activity was tested using a clinical lab isolate of Candida albicans. Salmonella typhinurium C57 and C610 (Fields, P.I., et al., Science 243: 1059-1062 (1989) Corynebacterium xerosis was an environmental isolate (University of British Columbia).
(§2) It is now apparent that agar-based assays severely underestimate antifungal activity as well as activity against gram negative microorganisms (Kondejewski, et al., 1996). Consequently, in the studies reported herein, a liquid-broth method was used to measure the antibiotic properties of the peptides. […] Briefly, cells were grown overnight at 37° C. in LB and diluted in the same medium. Serial dilutions of antibiotics were added to the microtitre plates in a volume of 100 μL followed by 10 μL of bacteria to give a final inoculum of 5×10^5 CFU/mL. Plates were incubated at 37° C. overnight and MICs determined as the lowest antibiotic concentration that inhibited growth. […]

E. coli DC2 = type: cell-based, Escherichia coli; details: DC2
From the text: as §1
(§3) It is now apparent that agar-based assays severely underestimate antifungal activity as well as activity against gram negative microorganisms (Kondejewski, et al., 1996). Consequently, in the studies reported herein, a liquid-broth method was used to measure the antibiotic properties of the peptides. […] Briefly, cells were grown overnight at 37° C. in LB and diluted in the same medium. Serial dilutions of antibiotics were added to the microtitre plates in a volume of 100 μL followed by 10 μL of bacteria to give a final inoculum of 5×10^5 CFU/mL. Plates were incubated at 37° C. overnight and MICs determined as the lowest antibiotic concentration that inhibited growth.
(§4) The results from antimicrobial and hemolytic assays are combined to provide a “Therapeutic Index” (TI) for each peptide with respect to individual microorganisms. As reported herein, the TI is calculated as the hemolytic activity divided by the antimicrobial activity. The TI thus is a measure of specificity of the particular peptide for microbial membranes as opposed to human blood cell membranes. In the present studies, antimicrobial activities are reported as minimum inhibitory concentrations (MIC)—the lowest concentration of peptide (μg/ml) found to inhibit growth of the particular microbe. Hemolytic activity is reported as the concentration of peptide that effected complete lysis of blood cells after four hours. Thus, in the context of the present invention high TI values indicate microbial specificity and relative lack of toxicity.

S. typhinurium C587 = type: cell-based, Salmonella typhinurium
From the text: as §1, §2

S. typhinurium C610 = type: cell-based, Salmonella typhinurium
From the text: as §1, §2

[1] = Displacement of dansyl-polymyxin from LPS; type: binding, P. aeruginosa; details: read-out: LPS binding affinity: peptide concentration to displace 50% of dansyl-polymyxin B from LPS; Tables 1, 4, 7
From the text: In order to determine whether ring size affects the interaction between the peptide and bacterial membranes, we studied the interaction between the GS ring analogs and bacterial lipopolysaccharide (LPS). It has been shown previously that dansyl-polymixin (DPX) is a good probe for cationic binding sites on both purified LPS as well as whole bacterial cells (Example 8; Moore, et al., 1986; Sawyer, et al., 1988; Hancock, 1981). […] The LPS binding activity of various GS analogs was investigated, as discussed above.
Dansyl-polymixin (DPX) displacement from P. aeruginosa LPS was measured as described (Moore, et al., 1986). Briefly, peptides were titrated into cuvettes containing 3 μg of LPS per mL and 2.5 μM dansyl-polymixin (approximately 90% saturation of LPS binding sites) in 1 mL of 5 mM sodium HEPES buffer, pH 7.0, and the decrease in fluorescence recorded. A plot of the inverse of the percent inhibition as a function of the inverse of inhibitor concentration gave a value for I50, the inhibitor concentration resulting in 50% displacement of dansyl-polymixin from LPS (−1/× intercept).

P. aeruginosa H187 = type: cell-based, Pseudomonas aeruginosa; details: H187
From the text: as §1, §3, §4

S. epidermidis = type: cell-based, Staphylococcus epidermidis
From the text: as §1, §2

S. aureus K147 = type: cell-based, Staphylococcus aureus
From the text: as §1, §3, §4

S. aureus SAP0017 = type: cell-based, Staphylococcus aureus
From the text: as §1, §3, §4

C. xeroses = type: cell-based, Corynebacterium xerosis
From the text: as §1, §2

E. coli UB1005 = type: cell-based, Escherichia coli; details: UB1005
From the text: as §1, §2

E. faecalis = type: cell-based, Enterococcus faecalis
From the text: as §1, §2

P. aeruginosa H188 = type: cell-based, Pseudomonas aeruginosa; details: H188
From the text: as §1, §2

C. Albicans = type: cell-based, Candida albicans
From the text: as §1, §2

Row | SMILES | Minimum Inhibitory Concentration (activity) (B. subtilis) [µg/mL] | Minimum Inhibitory Concentration (activity) (E. coli DC2) [µg/mL] | Minimum Inhibitory Concentration (activity) (S. typhinurium C587) [µg/mL] | Minimum Inhibitory Concentration (activity) (S. typhinurium C610) [µg/mL] | IC50 [1] [µM] | Minimum Inhibitory Concentration (activity) (P. aeruginosa H187) [µg/mL] | Minimum Inhibitory Concentration (activity) (S. epidermidis) [µg/mL] | Minimum Inhibitory Concentration (activity) (S. aureus K147) [µg/mL] | Minimum Inhibitory Concentration (activity) (S. aureus SAP0017) [µg/mL] | Minimum Inhibitory Concentration (activity) (C. xeroses) [µg/mL] | Minimum Inhibitory Concentration (activity) (E. coli UB1005) [µg/mL] | Minimum Inhibitory Concentration (activity) (E. faecalis) [µg/mL] | Minimum Inhibitory Concentration (activity) (P. aeruginosa H188) [µg/mL] | Minimum Inhibitory Concentration (activity) (C. Albicans) [µg/mL]
1 | CC(C)C[C@@H]1NC(=O)[C@H](CCCCN)NC(=O)[C@H](C(C)C)NC(=O)[C@H]2CCCN2C(=O)[C@@H](Cc2ccc(O)cc2)NC(=O)[C@H](CC(C)C)NC(=O)[C@H](CCCCN)NC(=O)[C@H](C(C)C)NC(=O)[C@H](CCCCN)NC(=O)[C@H](CC(C)C)NC(=O)[C@@H]2CCCN2C(=O)[C@@H](Cc2ccc(O)cc2)NC(=O)[C@H](C(C)C)NC(=O)[C@H](CCCCN)NC1=O [GS14P14] | >200 | 4 | >200 | >200 | 20 | >200 | 6.2 | >200 | >200 | 1 | 100 | 6.2 | 100 | 25
2 | CC(C)C[C@@H]1NC(=O)[C@H](CCCCN)NC(=O)[C@@H](C(C)C)NC(=O)[C@@H]2CCCN2C(=O)[C@@H](Cc2ccc(O)cc2)NC(=O)[C@H](CC(C)C)NC(=O)[C@H](CCCCN)NC(=O)[C@H](C(C)C)NC(=O)[C@H](CCCCN)NC(=O)[C@H](CC(C)C)NC(=O)[C@@H]2CCCN2C(=O)[C@@H](Cc2ccc(O)cc2)NC(=O)[C@H](C(C)C)NC(=O)[C@H](CCCCN)NC1=O [GS14V1] | 50 | 3.1 | 50 | 6.2 | 41 | 60 | 3.1 | 100 | 50 | 1.5 | 6.2 | 1.5 | 3.1 | 5
3 | CC(C)C[C@@H]1NC(=O)[C@H](CCCCN)NC(=O)[C@H](C(C)C)NC(=O)[C@H](CCCCN)NC(=O)[C@H](CC(C)C)NC(=O)[C@@H]2CCCN2C(=O)[C@@H](Cc2ccc(O)cc2)NC(=O)[C@H](C(C)C)NC(=O)[C@H](CCCCN)NC(=O)[C@H](CC(C)C)NC(=O)[C@@H](CCCCN)NC(=O)[C@H](C(C)C)NC(=O)[C@@H]2CCCN2C(=O)[C@@H](Cc2ccc(O)cc2)NC1=O [GS14K2] | 50 | 3.1 | 25 | 3 | 50 | 75 | 6.2 | 100 | 50 | 0.8 | – | 1.5 | 62 | 6.2
4 | CC(C)C[C@@H]1NC(=O)[C@H](CCCCN)NC(=O)[C@H](C(C)C)NC(=O)[C@@H]2CCCN2C(=O)[C@H](Cc2ccc(O)cc2)NC(=O)[C@H](CC(C)C)NC(=O)[C@H](CCCCN)NC(=O)[C@H](C(C)C)NC(=O)[C@H](CCCCN)NC(=O)[C@H](CC(C)C)NC(=O)[C@@H]2CCCN2C(=O)[C@@H](Cc2ccc(O)cc2)NC(=O)[C@H](C(C)C)NC(=O)[C@H](CCCCN)NC1=O [GS14Y13] | >200 | 3.1 | >200 | >200 | 24 | >200 | 9 | >200 | >200 | 1 | 100 | 3.1 | 100 | 25
5 | CC(C)C[C@@H]1NC(=O)[C@H](CCCCN)NC(=O)[C@H](C(C)C)NC(=O)[C@H](CCCCN)NC(=O)[C@H](CC(C)C)NC(=O)[C@@H]2CCCN2C(=O)[C@@H](Cc2ccc(O)cc2)NC(=O)[C@H](C(C)C)NC(=O)[C@H](CCCCN)NC(=O)[C@@H](CC(C)C)NC(=O)[C@H](CCCCN)NC(=O)[C@H](C(C)C)NC(=O)[C@@H]2CCCN2C(=O)[C@@H](Cc2ccc(O)cc2)NC1=O [GS14L3] | >200 | 50 | >200 | >200 | 35 | >200 | 50 | >200 | 200 | 0.8 | 200 | 0.8 | 200 | 100
6 | CC(C)C[C@@H]1NC(=O)[C@H](CCCCN)NC(=O)[C@H](C(C)C)NC(=O)[C@@H]2CCCN2C(=O)[C@@H](Cc2ccc(O)cc2)NC(=O)[C@H](CC(C)C)NC(=O)[C@H](CCCCN)NC(=O)[C@H](C(C)C)NC(=O)[C@H](CCCCN)NC(=O)[C@H](CC(C)C)NC(=O)[C@H]2CCCN2C(=O)[C@@H](Cc2ccc(O)cc2)NC(=O)[C@H](C(C)C)NC(=O)[C@H](CCCCN)NC1=O [GS14P7] | >200 | 6.2 | >200 | 200 | 18 | 200 | 6.2 | >200 | >200 | 1 | 200 | 6.2 | 100 | 25
